In patent publication US20240252546A1, “NEURITE OUTGROWTH PROMOTION KIT AND USE THEREFOR” (KEIO UNIVERSITY, priority 2021, published 2024):

Columns and labels:
[1] = system: nerve cells induced from neurospheres derived from 201B7 cells; assay: Effect of RK-682 on neurite outgrowth (Experimental Example 10); type: cell-based, human; details: 201B7 neurospheres; 20 μM RK-682, 24 hours, differentiated 14 days; vs control
Protocol: (§1) Neurospheres derived from 201B7 cells, which are cells of a human iPS cell line, were prepared in the same manner as in Experimental Example 1. Subsequently, the neurospheres were cultured for 24 hours in the presence of RK-682 at a final concentration of 20 μM. In addition, as a control, a group to which RK-682 was not added was also prepared.
(§2) Subsequently, each neurosphere was seeded on a 48-well chamber slide (IWAKI & CO., LTD.) coated with poly-L-ornithine/fibronectin, cultured for 14 days in a culture medium containing no growth factor at 37° C. in an environment of 95% air and 5% CO2, and differentiated into nerve cells.
Subsequently, each of the obtained nerve cells was fixed with 4% paraformaldehyde in 0.1 M PBS, and each of βIII-tubulin which is a nerve cell marker, and the Tau protein which is frequently distributed in axons, was immunostained, and the length of the neurite was measured.

CDC25B = target: T1, CDC25B (Homo sapiens, UniProt P30305); details: "it is said"; cited from earlier work
T1 sequence (P30305 1-580): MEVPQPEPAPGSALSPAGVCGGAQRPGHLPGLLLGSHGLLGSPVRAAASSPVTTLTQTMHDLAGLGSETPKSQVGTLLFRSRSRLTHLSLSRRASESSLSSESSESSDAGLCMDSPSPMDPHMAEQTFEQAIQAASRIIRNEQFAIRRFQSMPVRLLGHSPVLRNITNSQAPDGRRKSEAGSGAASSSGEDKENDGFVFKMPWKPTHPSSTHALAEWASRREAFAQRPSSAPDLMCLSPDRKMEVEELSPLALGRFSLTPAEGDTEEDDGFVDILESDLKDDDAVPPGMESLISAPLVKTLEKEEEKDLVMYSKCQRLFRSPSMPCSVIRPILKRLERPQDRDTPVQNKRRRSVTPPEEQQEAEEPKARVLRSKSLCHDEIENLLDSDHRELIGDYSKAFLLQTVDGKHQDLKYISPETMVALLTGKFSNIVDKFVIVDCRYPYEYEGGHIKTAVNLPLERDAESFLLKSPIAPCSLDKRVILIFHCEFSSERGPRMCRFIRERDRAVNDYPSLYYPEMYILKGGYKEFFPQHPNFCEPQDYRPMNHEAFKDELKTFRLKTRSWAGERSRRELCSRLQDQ

phosphorylated CDC25B [2] = assay: Effect of RK-682 on phosphorylation of CDC25B (Experimental Example 9); type: cell-based, human; details: 201B7 neurospheres; 20 μM RK-682, 24 hours; vs control
Protocol: as §1, with “prepared. Subsequently, each neurosphere was fixed with paraformaldehyde and subjected to immunostaining of each of the phosphorylated p38 and the phosphorylated CDC25B.” for “prepared.”

phosphorylated p38 = assay: Effect of RK-682 on phosphorylation of p38 (Experimental Example 9); type: cell-based, human; details: 201B7 neurospheres; 20 μM RK-682, 24 hours; vs control
Protocol: as §1, with “prepared. Subsequently, each neurosphere was fixed with paraformaldehyde and subjected to immunostaining of each of the phosphorylated p38 and the phosphorylated CDC25B.” for “prepared.”

phosphorylated CDC25B [3] = assay: Effect of addition of SB203580 on phosphorylation of CDC25B (Experimental Example 6); type: cell-based, human
Protocol: (§3) Neurospheres derived from 201B7 cells, which are cells of a human iPS cell line, were prepared in the same manner as in Experimental Example 1. Subsequently, each neurosphere was cultured for 24 hours in the presence of each of DAPT and Compound 34. DAPT and Compound 34 were used at the same concentrations as in Experimental Example 1. In addition, in this case, SB203580 (CAS number: 152121-47-6), which is a p38 inhibitor, was added to the culture medium at a final concentration of 20 μM. In addition, a group to which SB203580 had not been added was also prepared as a control.
Subsequently, each neurosphere was fixed with paraformaldehyde and subjected to immunostaining of phosphorylated CDC25B.
In FIG. 12(c), “DAPT” indicates it is the result obtained from the control into which the DAPT treatment has been carried out in the absence of SB203580, and “DAPT+SB203580” indicates it is the result obtained by carrying out the DAPT treatment in the presence of SB203580.

[4] = system: nerve cells induced from neurospheres derived from 201B7 cells; assay: Effect of addition of SB203580 on neurite outgrowth (Experimental Example 7); type: cell-based, human; details: differentiated 14 days
Protocol: as §3, §2
Subsequently, each of the obtained nerve cells was fixed with 4% paraformaldehyde in 0.1 M PBS, and each of βIII-tubulin which is a nerve cell marker, and the Tau protein which is frequently distributed in axons, was immunostained, and the length of the neurite was measured. […]

[5] = 20 μM SB203580 during Compound 34 treatment (1 μM, 24 hours), vs without SB203580
[6] = 20 μM SB203580 during DAPT treatment (10 μM, 24 hours), vs DAPT without SB203580

Row | Compound | neurite outgrowth (neurite length), βIII-tubulin immunostaining [1] | neurite outgrowth, Tau protein immunostaining [1] | dephosphorylation inhibitory effect on CDC25B (CDC25B) | amount of phosphorylated CDC25B in the neurosphere (phosphorylated CDC25B [2]) | amount of phosphorylated p38 in the neurosphere (phosphorylated p38) | increase in the amount of phosphorylated CDC25B in the neurosphere (phosphorylated CDC25B [3]; [5]) | increase in the amount of phosphorylated CDC25B in the neurosphere (phosphorylated CDC25B [3]; [6]) | neurite outgrowth (neurite length) [4, 5] | neurite outgrowth (neurite length) [4, 6]
1 | CCCCCCCCCCCCCCCC(=O)C1=C(O)[C@@H](CO)OC1=O [RK-682] | significantly promoted | significantly promoted | does not have a dephosphorylation inhibitory effect | significantly increased | significantly increased | – | – | – | –
2 | C[S+]([O-])c1ccc(-c2nc(-c3ccncc3)c(-c3ccc(F)cc3)[nH]2)cc1 (stereo not drawn) [SB203580] | – | – | – | – | – | significantly suppressed | significantly suppressed | significantly suppressed | significantly suppressed
